The structures appear in SMILES notation. Like-named read-outs stand apart in the source and are kept apart here.

The target in the assay is T1, 5-HT 1D beta receptors (Homo sapiens, UniProt P28222).
T1 construct: expressed in transfected cells; host or cells: CHO cells
Briefly: 5-HT 1D beta binding ([3H]-5-HT displacement, homogenised CHO cells). The method, then: 5-HT 1D ALPHA AND 5-HT 1D BETA BINDING.
CHO cells expressing 5-HT 1D beta receptors (4×10^7 cells/ml) are homogenised in Tris buffer and stored in 1.5 ml aliquots.
0.4 ml of a cell suspension was incubated with [^3 H]-5-HT (4 nM) in Tris Mg HCl buffer (pH 7.7) and test drug, at 37° C. for 45 minutes. Each test drug was tested at 10 concentrations (0.01 mM to 0.3 nM final concentration), with non-specific binding defined using 0.01 mM 5-HT. The total assay volume was 0.5 ml. Incubation was stopped by rapid filtration using a Packard Filtermate (filters pre-soaked in 0.3% polyethylenimine) and radioactivity measured by Topcount scintillation counting. The pKi values were calculated from the IC50 generally by an iterative leas squares curve fitting programme.

Where [1] appears, read: CHO cells expressing 5-HT 1D beta receptors, [3H]-5-HT (4 nM), 37° C. for 45 minutes, pKi calculated from the IC50, read-out: pKi values at 5-HT 1D beta receptors (converted).

T1 sequence (P28222 whole entry): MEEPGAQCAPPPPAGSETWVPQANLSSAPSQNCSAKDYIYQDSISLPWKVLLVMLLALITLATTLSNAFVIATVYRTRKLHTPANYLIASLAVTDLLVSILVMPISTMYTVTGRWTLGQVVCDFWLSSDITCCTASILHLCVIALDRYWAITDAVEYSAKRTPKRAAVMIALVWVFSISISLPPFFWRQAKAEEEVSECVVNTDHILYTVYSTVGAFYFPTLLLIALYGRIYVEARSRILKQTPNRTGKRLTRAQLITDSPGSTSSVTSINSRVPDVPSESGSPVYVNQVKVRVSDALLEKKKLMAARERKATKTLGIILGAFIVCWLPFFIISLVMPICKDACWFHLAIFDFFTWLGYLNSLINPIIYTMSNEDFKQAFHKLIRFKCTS

Consider `CCN1CCC2(CC1)COc1cc3c(cc12)N(C(=O)c1ccc(-c2ccc(-c4noc(C)n4)cc2C)cc1)CC3` [Example 4, 1'-Ethyl-5-(2'-methyl-4'-(5-methyl-1,2,4-oxadiazol-3-yl)biphenyl-4-carbonyl)-2,3,6,7-tetrahydrospiro[furo[2,3-f]indole-3,4'-piperidine]], for which, under setting [1], the Ki is < 10 nM.
On the same count and under the same terms, with `Cc1nnc(-c2ccc(-c3ccc(C(=O)N4CCc5cc6c(cc54)C4(CCN(C)CC4)CO6)cc3)c(C)c2)o1` [Example 5, 1'-Methyl-5-(2'-methyl-4'-(5-methyl-1,3,4-oxadiazol-2-yl)biphenyl-4-carbonyl)-2,3,6,7-tetrahydrospiro[furo[2,3-f]indole-3,4'-piperidine]] the figure was < 10 nM.
On to `Cc1cc(-c2noc(N(C)C)n2)ccc1-c1ccc(C(=O)N2CCc3cc4c(cc32)C2(CCN(C)CC2)CO4)cc1` [Example 6, 5-(4'-(5-Dimethylamino-1,2,4-oxadiazol-3-yl)-2'-methylbiphenyl-4-carbonyl)-1'-methyl-2,3,6,7-tetrahydrospiro[furo[2,3-f]indole-3,4'-piperidine]], for which, under setting [1], the Ki was < 10 nM.
The same measure, in the same setting: the figure for `Cc1nc(-c2ccc(-c3ccc(C(=O)n4ccc5cc6c(cc54)C4(CCN(C)CC4)CO6)cc3)c(C)c2)no1` [Example 8, 2,3-Dihydro-1'-methyl-5-(2'-methyl-4'-(5-methyl-1,2,4-oxadiazol-3-yl)biphenyl-4-carbonyl)spiro[furo[2,3-f]indole-3,4'-piperidine)] is < 10 nM; for `Cc1nnc(-c2ccc(-c3ccc(C(=O)n4ccc5cc6c(cc54)C4(CCN(C)CC4)CO6)cc3)c(C)c2)o1` [Example 18, 2,3-Dihydro-1'-methyl-5-(2'-methyl-4'-(5-methyl-1,3,4-oxadiazol-2-yl)biphenyl-4-carbonyl)spiro[furo[2,3-f]indole-3,4'-piperidine]] it is < 10 nM.
On to `COC(=O)c1ccc(C)c(-c2ccc(C(=O)N3CCc4cc5c(cc43)C3(CCN(C)CC3)CO5)cc2)c1` [Example 23, 5-(5'-Methoxycarbonyl-2'-methylbiphenyl-4-carbonyl)-1'-methyl-2,3,6,7-tetrahydrospiro[furo[2,3-f]indole-3,4'-piperidine]], for which the Ki under setting [1] was < 10 nM.
For `CCN1CCC2(CC1)COc1cc3c(cc12)N(C(=O)c1ccc(-c2ccc(-c4nnc(C)o4)cc2C)cc1)CC3` [Example 26, 1'-Ethyl-5-[2'-methyl-4'-(5-methyl-1,3,4-oxadiazol-2-yl)biphenyl-4-carbonyl]-2,3,6,7-tetrahydrospiro[furo[2,3-f]indole-3,4'-piperidine]], the Ki is < 10 nM.
Turning to `Cc1nnc(-c2ccc(-c3ccc(C(=O)N4CCc5cc6c(cc54)C4(CCO6)CCN(C)CC4)cc3)c(C)c2)o1` [Example 40, 1'-Methyl-6-[2°-methyl-4'-(5-methyl-1,3,4-oxadiazol-2-yl)biphenyl-4-carbonyl]-2,3,7,8-tetrahydrospiro[4H-pyrano[2,3-f]indole-4,4'-piperidine]], the Ki under setting [1] was < 10 nM.
The same measure, in the same setting: with `Cc1cc(-c2ccc(-c3ccc(C(=O)N4CCc5cc6c(cc54)C4(CCN(C)CC4)CO6)cc3)c(C)c2)no1` [Example 45, 1'-Methyl-5-(2'-methyl-4'-(5-methylisoxazol-3-yl)biphenyl-4-carbonyl)-2,3,6,7-tetrahydrospiro[furo[2,3-f]indole-3,4'-piperidine]] the figure was < 10 nM.
Turning to `Cc1cc(-c2cnccn2)ccc1-c1ccc(C(=O)N2CCc3cc4c(cc32)C2(CCN(C)CC2)CO4)cc1` [Example 51, 1'-Methyl-5-(2'-methyl-4'-pyrazinylbiphenyl-4-carbonyl)-2,3,6,7-tetrahydrospiro[furo[2,3-f]indole-3,4'-piperidine]], the Ki under setting [1] is < 10 nM.
Same read-out and setting: with `Cc1cc(-c2cncn2C)ccc1-c1ccc(C(=O)N2CCc3cc4c(cc32)C2(CCN(C)CC2)CO4)cc1` [Example 54, 1'-Methyl-5-[2'-methyl-4'-(1-methylimidazol-5-yl)biphenyl-4-carbonyl]-2,3,6,7-tetrahydrospiro[furo[2,3-f]indole-3,4'-piperidine]] the figure was < 10 nM; with `Cc1cc(-c2noc(CO)n2)ccc1-c1ccc(C(=O)N2CCc3cc4c(cc32)C2(CCN(C)CC2)CO4)cc1` [Example 55, 5-[4'-(5-Hydroxymethyl-1,2,4-oxadiazol-3-yl)-2'-methylbiphenyl-4-carbonyl]-1'-methyl-2,3,6,7-tetrahydrospiro[furo[2,3-f]indole-3,4'-piperidine]], < 10 nM.
Same read-out and setting: with `Cc1cc(-c2nccnn2)ccc1-c1ccc(C(=O)N2CCc3cc4c(cc32)C2(CCN(C)CC2)CO4)cc1` [Example 57, 1'-Methyl-5-[2'-methyl-4'-(1,2,4-triazin-3-yl)biphenyl-4-carbonyl]-2,3,6,7-tetrahydrospiro[furo[2,3-f]indole-3,4'-piperidine]] the figure was < 10 nM; with `CCOC(=O)Nc1ccc(-c2ccc(C(=O)N3CCc4cc5c(cc43)C3(CCN(CC)CC3)CO5)cc2)c(C)c1` [Example 66, 5-[4'-(Ethoxycarbonylamino)-2'-methylbiphenyl-4-carbonyl]-1'-ethyl-2,3,6,7-tetrahydrospiro[furo[2,3-f]indole-3,4'-piperidine]], < 10 nM.
